Results reported in US20210340130A1, “Compositions and methods for treating attention deficit disorders” (priority 2016, published 2021).
Values after ≈ are worked out from the molar mass of the structure shown. Read-outs that look alike come from different tables or passages of the source.

Key:
acetylcholine esterase = acetylcholine esterase (Homo sapiens, UniProt P22303); test: Acetylcholine esterase functional inhibition; type: biochemical
Male Sprague-Dawley rats = test: Spontaneous locomotor activity (LMA) and rearing in rats; type: in vivo
Method: Behavioral tests of locomotor activity were conducted to determine the effects of exemplary low impact ampakines CX717 and CX1739 on normal, and amphetamine-stimulated activity in animal behavioral models. […] Male Sprague-Dawley rats (175-200 g; Charles River Laboratories) were given ad libitum food and water and maintained on a 12:12 hr light: dark cycle with lights on at 6:00 a.m. Each of ten test cages (standard polycarbonate animal cage; 26 cm×48 cm×20 cm; W×L×H) were surrounded by two photo beam arrays, placed to detect locomotor activity with a lower array and rearing behavior with an upper array. Locomotor and rearing activity were continuously monitored and recorded by computer for all ten test cages (Photo beam Activity System, San Diego Instruments, San Diego, Calif.). The test period was chosen as the 1st few hours of the dark period of the light: dark cycle. Approximately 15 min before the start of the dark cycle, the rats were removed from the housing facility, transported to the testing room and injected with CX717, CX1739 or vehicle and placed into photo beam activity cages. Immediately after all rats were injected the room lights were turned off and spontaneous activity data were collected for the next four hours. CX717 and CX1739 groups (0.1 to 10 mg/kg) were compared to the vehicle group.

Rat (SD) = test: Radial arm maze - spatial memory; type: in vivo; conditions: for Minimum Effective Dose: IP
Method: Yet another animal model for evaluating ampakine drug activity employed herein is the well known and widely accepted Radial Arm Maze model. CX717 was tested for its ability to improve the performance of aged rats in an eight-arm radial maze using a cross-over design study. This behavioral test uses a standard eight-arm radial maze wherein five arms were open and baited with food pellets for the first morning session. Each animal was allowed to consume the food rewards present in the open arms and was then returned to its home cage. Six hours later animals were returned to the maze, wherein all eight-arms were open, but only the three arms previously closed contained food rewards. Scoring was based on the number of correct choices before an incorrect choice (re-entering an arm that was visited during the morning acquisition session) was made and on the total number of incorrect choices made before all three of the still baited arms were visited. CX717 was tested at six doses (0.03, 0.1, 0.3, 1, 3 and 10 mg/kg in hydroxypropyl β-cyclodextran, i.p.), administered 30 min prior to the start of the morning acquisition session and no drug was given prior to the second trial six hours later.
For CX1739 male Sprague-Dawley rats were trained to perform the win shift assay on the radial arm maze for approximately 10 weeks prior to the study. On each day of training and testing, each rat completed one trial, split into a sample phase and a test phase. During the sample phase, the rat was placed on a 12-arm radial arm maze surrounded by visual cues. Food wells at the end of each arm were baited with sucrose pellets but access to three arms, selected randomly, was blocked with a clear plastic divider at the arm entrance. The rat was allowed 5 minutes to search the maze and collect the available food pellets before being removed from the maze. Fifteen minutes later the rat was returned to the maze for the test phase of the trial. During the test phase, the rat was allowed access to all 12 arms of the maze but only the arms that had been blocked previously were baited with sucrose pellets. The rat was allowed 3 minutes to collect the available food pellets before being removed from the maze. On test days, rats were injected with CX1739 (0.03-1.0 mg/kg, i.p.) or vehicle immediately following the sample phase of the study. The primary dependent measure was the cumulative number of arm entries prior to entering the first, second, and third baited arm during the test phase.

[1] = system: perforant path / dentate gyrus of the hippocampus (fEPSPs); test: Effect on evoked fEPSPs in rat hippocampus (anesthetized animals, in vivo); design: species or system Rat (Long Evans); conditions: for Minimum Effective Dose: IP, dose range 5-20 mg/kg; for duration of the fEPSP effect: about 2 hours monitoring, CX717 at 20 mg/kg; for effect on evoked fEPSP / maximum increase in fEPSP amplitude: intraperitoneal administration
Method: Further selection and characterization of ampakines to identify anti-ADHD drugs useful within the invention involved electrophysiological studies (to measure “electrically evoked field excitatory postsynaptic potentials” (fEPSPs) for test compounds). CX717 and CX1739 were tested for their ability to facilitate synaptic responses in vivo in anesthetized animals following peripheral administration. Stimulating and recording electrodes were inserted into the perforant path and dentate gyrus of the hippocampus, respectively. Electrically evoked field excitatory postsynaptic responses (fEPSPs) were measured before administration of ampakines, and for approximately 2 hours following intraperitoneal administration of ampakines.
Electrically evoked field excitatory postsynaptic potentials (fEPSPs) were determined for the exemplary test ampakines CX717 and CX1739 as described. […] The response magnitude was related to the plasma levels achieved during the study. […] Both ampakines appear to produce a 25% maximum increase in fEPSP amplitude.

Rat (Lister) = test: 5 Choice serial reaction time task; type: in vivo
Excerpt: Another useful animal model for evaluating ampakine activity is the Five Choice Serial Reaction Time Task in Rats. This assay requires rats to provide a single nose poke in response to a light stimulus presented in one of five locations within a 9-hole chamber. With a correct response a reward is delivered that the rat collects from the food magazine at the rear of the chamber. The withdrawal of its head from the food magazine initiates a short inter-trial interval followed by the presentation of the next randomly presented stimulus. An incorrect response results in a time out period (non-reinforcement) followed by the initiation of a new trial. Groups of 12 rats were used in this study, and all rats received all treatments using a randomized sequence. For evaluation using this model, CX1739 was selected as the exemplary low impact ampakine, administered at doses of 3 and 10 mg/kg i.p. 20 min prior to the start of the study.

[2] = Limit of solubility (in ACSF perfusion); type: physicochemical; conditions: artificial cerebral spinal fluid (ACSF), aqueous buffer, kinetic from dmso stock
[3] = aged rats, eight-arm maze, 0.03-10 mg/kg i.p.

Chain of acetylcholine esterase (P22303 32-614): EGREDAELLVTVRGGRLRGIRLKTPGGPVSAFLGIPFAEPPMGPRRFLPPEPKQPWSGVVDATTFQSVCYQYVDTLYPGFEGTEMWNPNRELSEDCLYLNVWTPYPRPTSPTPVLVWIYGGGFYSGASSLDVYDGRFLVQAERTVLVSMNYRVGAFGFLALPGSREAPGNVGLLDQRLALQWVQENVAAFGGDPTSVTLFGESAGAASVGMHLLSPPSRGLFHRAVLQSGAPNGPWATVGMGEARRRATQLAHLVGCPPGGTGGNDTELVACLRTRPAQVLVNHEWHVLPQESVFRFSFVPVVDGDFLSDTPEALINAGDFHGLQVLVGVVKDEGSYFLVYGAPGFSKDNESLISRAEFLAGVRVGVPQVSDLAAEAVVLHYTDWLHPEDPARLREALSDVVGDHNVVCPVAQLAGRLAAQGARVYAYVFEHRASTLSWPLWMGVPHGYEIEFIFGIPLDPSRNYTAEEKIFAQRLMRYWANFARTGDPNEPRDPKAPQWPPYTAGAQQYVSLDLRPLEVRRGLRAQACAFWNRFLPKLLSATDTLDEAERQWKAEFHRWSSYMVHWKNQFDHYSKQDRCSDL

Q: With O=C(c1ccc2nonc2c1)N1CCOCC1 [CX717, 1-(benzofurazan-5-ylcarbonyl)morpholine] as the compound, how does the Ki (acetylcholine esterase) read?
A: 165 µM

Q: What about the inhibition at 100 µM (acetylcholine esterase; 100 μM) of the same compound?
A: 53%

Q: And the spontaneous rearing (Male Sprague-Dawley rats; 10 mg/kg vs. vehicle, p<0.01)?
A: significant decrease

Q: What about the “pharmacodynamics of the effect on rearing behavior” value (Male Sprague-Dawley rats; 10 mpk, 1, 2, 3 and 4 hours post treatment) of the same compound?
A: prolonged action

Q: What about the spontaneous locomotor activity (Male Sprague-Dawley rats; first hour following ip administration, ANOVA=0.45) of the same compound?
A: no effect

Q: And the “Minimum Effective Dose” value (Rat (SD))?
A: 0.3 mg/kg

Q: And the “doses with highly significant difference in performance between drug and vehicle days” value (Rat (SD); Kruskal-Wallace P=0.008, Wilcoxon Signed Rank Test)?
A: ≥ 0.3 mg/kg

Q: And the “number of correct choices (before making an error) in the second maze session” value (Rat (SD); [3])?
A: dose-dependent increase

Q: And the “total number of errors” value (Rat (SD); [3])?
A: decrease

Q: What about the “Minimum Effective Dose” value [1] of the same compound?
A: 5 mg/kg

Q: And the “duration of the fEPSP effect” value [1]?
A: plateaued for the duration of monitoring

Q: And the “effect on evoked fEPSP” value [1]?
A: long-lasting increase in the evoked fEPSP in a concentration-dependent manner

Q: What about the “maximum increase in fEPSP amplitude” value [1] of the same compound?
A: ~25%

Q: Which “latency to correct responses” value (Rat (Lister); 10 mg/kg) does the source give for CN(C(=O)c1ccc2nonc2c1)C1CCOCC1 [CX1739, N-Methyl-N-tetrahydro-2H-pyran-4-yl-[2,1,3]-benzoxadiazole-5-carboxamide] here?
A: significantly reduced

Q: What about the omissions (Rat (Lister); 10 mg/kg) of the same compound?
A: significant improvement

Q: And the accuracy of responding (Rat (Lister); 3 and 10 mg/kg ip)?
A: significantly improved

Q: What about the “number of premature responses” value (Rat (Lister); 3 and 10 mg/kg ip) of the same compound?
A: reduced

Q: And the “Minimum Effective Dose” value (Rat (Lister); IP, dose range 3-10 mg/kg)?
A: 3 mg/kg

Q: And the solubility ([2]; read-out: limit of solubility)?
A: 200 µM (≈ 52.3 µg/mL)

Q: And the solubility ([2]; read-out: limit of the drug's solubility)?
A: ~200 µM (≈ 52.3 µg/mL)

Q: What about the “entries before finding the third arm with a food pellet reward” value (Rat (SD); 0.3 mg/kg, 12-arm maze, p<0.05) of the same compound?
A: significantly fewer entries

Q: And the “Minimum Effective Dose” value (Rat (SD))?
A: 0.3 mg/kg

Q: What about the “optimal dose (dose producing the maximal effect) in the maze assay” value (Rat (SD); ip) of the same compound?
A: 0.3 mg/kg

Q: What about the “Minimum Effective Dose” value [1] of the same compound?
A: 5 mg/kg

Q: And the “duration of the fEPSP effect” value [1]?
A: declined to baseline after two hours

Q: And the “effect on evoked fEPSP” value [1]?
A: substantial increase in EPSP amplitude

Q: What about the “maximum increase in fEPSP amplitude” value [1] of the same compound?
A: ~25%
